The source of these data is article PMC8205030, “Methoxy and bromo scans on N-(5-methoxyphenyl) methoxybenzenesulphonamides reveal potent cytotoxic compounds, especially against the human breast adenocarcinoma MCF7 cell line” (Journal of Enzyme Inhibition and Medicinal Chemistry, 2021).

Broadly, the IC50 is the concentration at which inhibition is half-maximal. A word on the solubility: it is how much of the substance goes into solution per volume. Low readings indicate little dissolved substance, high ones much dissolved substance. The term melting point denotes the temperature of the solid-liquid transition.

Series [1] relates to HeLa (human cervical carcinoma) cells. Description: Cell growth assay (XTT), HeLa. The format is cell-based. The settings on record: 72 h drug exposure, read-out: Antiproliferative activity IC50 HeLa. Put shortly: (§1)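 Cells (1.5 × 10^4 cells/mL for MCF7, HeLa, HEK293; 3 × 10^4 cells/mL for HT-29) attached 24 h, then treated 72 h at 37 °C, 5% CO2. Screened at 1 µM; IC50 versus untreated controls from 10^−5 to 10^−10 M by nonlinear fit. XTT/PMS absorbance at 450 nm after 4 h (MCF7, HeLa) or 6 h (HT-29, HEK293); HT-29 with 10 µM verapamil.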
(In general: Formazan colour is commonly taken as a measure of viable cells.)

Series [2] deals with MCF7 (human breast carcinoma) cells. The experiment in a line: Cell growth assay (XTT), MCF7. The following applies: Homo sapiens, MCF7; 72 h drug exposure, XTT; read-out: Antiproliferative activity IC50 MCF7. The format is cell-based. A digest of the protocol:
as §1

In series [3] the test system is HT-29 (human colon carcinoma) cells. Description: Cell growth assay (XTT), HT-29, alone or with verapamil. The format is cell-based.
Series [4] has as its system HEK293 (human embryonic kidney) cells. Description: Cell growth assay (XTT), non-tumorigenic HEK293. Format: cell-based. The settings on record: for IC50: Homo sapiens, HEK293, non-tumorigenic cell line, 72 h, XTT, read-out: Antiproliferative activity IC50 HEK293. As for the experimental part: The presence of mycoplasma was routinely checked with MycoAlert kit (Lonza-Cambrex) and only mycoplasma-free cells were used in the experiments. Tumour cell lines were kindly provided by Dr Faustino Mollinedo from Centro de Investigaciones Biológicas Margarita Salas, Madrid, Spain. To determine cell growth, cells in exponential growth phase were seeded (100 µL/well in 96-well plates) with appropriate cell concentration (1.5 × 10^4 cells/mL for MCF7, HeLa and HEK-293 and 3 × 10^4 cells/mL for HT-29) in complete DMEM or RPMI 1640 medium (see above) at 37 °C and 5% CO2 atmosphere. After 24 h incubation, to allow cells to attach to the plates, all compounds were added at 1 µM concentration (10 µL/well in 96-well plates) and the effect on the proliferation was evaluated 72 h post-treatment. Compounds showing antiproliferative effects at tested concentration were selected for IC50 calculation (50% inhibitory concentration compared to the untreated controls) from 10^−5 to 10^−10 M concentration. Nonlinear curves fitting the experimental data were carried out for each compound. […] A freshly prepared mixture solution of XTT labelling reagent with 0.02% (v/v) PMS (N-methyl-dibenzopyrazine methyl sulfate) electron coupling reagent was added to cells (50 µL/well in 96-well plates, the total volume of 160 µL/well) and were incubated during the corresponding time according to each cell line (4 h for MCF7 and HeLa and 6 h for HT-29 and HEK-293) in a humidified atmosphere (37 °C, 5% CO2). The absorbance of the formazan product generated was measured at a test wavelength of 450 nm using a multi-well plate reader (Ultra Evolution, Tecan, Männedorf, Suiza). Compounds were dissolved in DMSO and the final solvent concentrations never exceeded 0.5% (v/v). The control wells included treated cells with 0.5% (v/v) DMSO and the positive control. 10 µM verapamil was included as a control for the HT-29 cell line. Measurements were performed in triplicate, and each experiment was repeated three times.

In series [5] the target is T1, microtubular protein isolated from calf brain (Bos taurus, UniProt P81947+Q6B856).
T1 construct: isolated from calf brain according to the modified Shelanski method; from tissue; host or cells: calf brain
The experiment in a line: Inhibition of tubulin polymerisation (turbidity). The format is biochemical. The settings on record: for TPI % 10 µM: 10 µM compound, 1.5 mg/mL microtubular protein; for IC50: in vitro tubulin polymerisation inhibition, read-out: TPI IC50.

Series [6] is described as follows: Aqueous solubility (saturation shake-flask, UV). Format: physicochemical. The settings on record: aqueous buffer, thermodynamic from solid, pH 7.0 phosphate buffer, room temperature. As for the experimental part: The aqueous solubility was determined in a Helios-α UV-320 Spectrophotometer Thermo-Spectronic, Thermo Fischer Scientific, Waltham, MA, USA) using an approach based on the saturation shake-flask method. 1–2 mg of each selected compound was suspended in 300 µL pH 7.0 buffer and stirred for 48 h at room temperature. The resulting mixture was filtered through a […] filter to discard the insoluble residues. A scan between 270 and 400 nm for the tested compound was performed and three wavelengths of maximum absorbance were selected. Calibration curves were performed at these wavelengths and the concentration in the supernatant was measured by UV absorbance. The final value was given as the average of the three measurements.

Setting [7] is: 72 h, in the presence of Pgp/MDR1 inhibitor verapamil (10 µM), read-out: Antiproliferative activity IC50 HT-29 Verap.
The mark [8] stands for this setting: Homo sapiens, HT-29, 72 h drug exposure, XTT, read-out: Antiproliferative activity IC50 HT-29.

The structures appear in SMILES notation. ≈ marks a conversion by molar mass, not a printed value. Where two headings read alike, the source gives them in different places.

T1 sequence (Q6B856 whole entry): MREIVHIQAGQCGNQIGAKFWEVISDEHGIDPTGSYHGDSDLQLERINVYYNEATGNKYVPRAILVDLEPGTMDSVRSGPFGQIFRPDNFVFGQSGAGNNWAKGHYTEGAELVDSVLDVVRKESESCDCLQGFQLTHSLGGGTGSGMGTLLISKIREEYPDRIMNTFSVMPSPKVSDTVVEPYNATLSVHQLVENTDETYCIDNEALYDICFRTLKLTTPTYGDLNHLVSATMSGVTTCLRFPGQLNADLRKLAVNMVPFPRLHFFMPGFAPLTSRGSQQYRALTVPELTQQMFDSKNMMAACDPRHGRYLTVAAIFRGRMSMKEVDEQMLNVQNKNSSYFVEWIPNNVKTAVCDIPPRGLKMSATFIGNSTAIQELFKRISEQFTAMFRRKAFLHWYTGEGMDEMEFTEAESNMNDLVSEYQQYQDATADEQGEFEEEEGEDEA
T1 sequence (P81947 whole entry): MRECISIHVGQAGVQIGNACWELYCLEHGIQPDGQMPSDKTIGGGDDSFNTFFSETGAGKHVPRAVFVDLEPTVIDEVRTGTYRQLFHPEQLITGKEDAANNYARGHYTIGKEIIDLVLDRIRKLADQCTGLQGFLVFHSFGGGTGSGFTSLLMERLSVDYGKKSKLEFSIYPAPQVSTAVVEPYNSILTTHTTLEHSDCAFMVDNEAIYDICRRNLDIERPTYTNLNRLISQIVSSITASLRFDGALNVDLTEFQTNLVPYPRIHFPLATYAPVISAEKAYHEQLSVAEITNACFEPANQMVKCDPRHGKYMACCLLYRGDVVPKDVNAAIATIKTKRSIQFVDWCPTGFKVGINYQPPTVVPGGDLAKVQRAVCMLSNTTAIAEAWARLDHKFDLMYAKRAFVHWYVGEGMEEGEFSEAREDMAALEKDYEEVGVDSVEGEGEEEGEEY

`COc1ccc(S(=O)(=O)N(C)c2cc(OC)c(Br)cc2OC)cc1` [Compound 24, N-(4-bromo-2,5-dimethoxyphenyl)-4-methoxy-N-methylbenzenesulphonamide]: the melting point fell in the range of 132 to 133 °C. For the same compound, in series [1], the IC50 came to 33 nM. The half-inhibitory concentration (IC50) in series [2] amounted to 19 nM. For the same compound, the half-maximal inhibitory concentration (IC50) in series [3] (setting [7]) came to 160 nM. Further, the IC50 in series [3] (setting [8]) is 123 nM. Further, in series [4], the “Selectivity index HEK293 vs HeLa and MCF7 tumour cells” value (“Selectivity index HEK293” for short) is reported as 3- to 5 fold; the IC50 is 91 nM. Moreover, in series [5], the “TPI % 10 µM” value is reported as 59% and the IC50 stood at 7600 nM. Moreover, in series [6], the solubility at 48 h worked out at 1 µg/mL (≈ 2.4 µM).
In turn, `COc1ccc(S(=O)(=O)N(C)c2cc(OC)ccc2OC)cc1` [Compound 22, N-(2,5-dimethoxyphenyl)-4-methoxy-N-methylbenzenesulphonamide] displayed a melting point of 105 to 110 °C. Also, the IC50 in series [1] came out at 177 nM. The IC50 in series [2] came to 153 nM. For the same compound, the IC50 in series [3] (setting [7]) was 305 nM. Further, in series [3] (setting [8]), the half-inhibitory concentration (IC50) was found to be 250 nM. Moreover, in series [4], the “Selectivity index HEK293” value is listed as 3- to 5 fold; the IC50 stood at 517 nM. Moreover, in series [5], the “TPI % 10 µM” value is recorded as 4% and the IC50 is more than 10000 nM. The compound also came in with a solubility at 48 h in series [6] of 25 µg/mL (≈ 74.1 µM).
In the case of `COc1ccc(S(=O)(=O)Nc2cc(OC)c(Br)cc2OC)cc1` [Compound 23, N-(4-bromo-2,5-dimethoxyphenyl)-4-methoxybenzenesulphonamide], the melting point lay within 118 to 119 °C. Besides, in series [1], the IC50 came to 45 nM. For the same compound, the IC50 in series [2] is 25 nM. Further, the 50% inhibitory concentration (IC50) in series [3] (setting [7]) is 30 nM. For the same compound, in series [3] (setting [8]), the IC50 turned out to be 72 nM. Also, in series [4], the “Selectivity index HEK293” value lay in the range of 0.5 to 2 fold; the IC50 worked out at 43 nM. For the same compound, in series [5], the “TPI % 10 µM” value amounted to 65% and the IC50 turned out to be 6900 nM. The solubility at 48 h in series [6] is 9 µg/mL (≈ 22.4 µM).
Regarding `COc1ccc(S(=O)(=O)Nc2cc(OC)c(OC)cc2OC)cc1` [Compound 32, 4-Methoxy-N-(2,4,5-trimethoxyphenyl)benzenesulphonamide], the melting point is 112 to 114 °C. Further, the IC50 in series [1] came out at 410 nM. The half-inhibitory concentration (IC50) in series [2] came out at 580 nM. The IC50 in series [3] (setting [7]) amounted to 553 nM. In series [3] (setting [8]), the IC50 worked out at 360 nM. In series [5], the “TPI % 10 µM” value amounted to 3% and the IC50 was more than 10000 nM. In addition, the solubility at 48 h in series [6] stood at 213 µg/mL (≈ 603 µM).
`COc1ccc(S(=O)(=O)N(C)c2cc(OC)cc(OC)c2)cc1` [Compound 2, N-(3,5-dimethoxyphenyl)-4-methoxy-N-methylbenzenesulphonamide] had a melting point of 120 to 128 °C. Further, the IC50 in series [1] is 877 nM. In addition, the IC50 in series [2] amounted to 765 nM. In series [3] (setting [8]), the IC50 is more than 1000 nM. Moreover, in series [5], the “TPI % 10 µM” value was determined as 10% and the concentration for half-maximal inhibition (IC50) was more than 10000 nM. In addition, the solubility at 48 h in series [6] amounted to 35 µg/mL (≈ 104 µM).
